# Patent US5998487A, “Anti-inflammatory and antibacterial benzyl phenol agents and their use in oral compositions” (Colgate-Palmolive Company, priority 1998, dated 1999)
# Read-outs that look alike come from different tables or passages of the source.
# Experiments:
# A. viscosus = assay: MIC (Minimum Inhibitory Concentration) test; format: cell-based; settings: for MIC: Actinomyces viscosus, read-out: MIC (Bacterial Minimum Inhibitory Concentration)
# Method: The smaller the MIC, the greater the antibacterial activity of the compound being tested.
# Using a 96 well microtiter plate, a 100 μl of trypticase soy broth (TSB) media, available from BBL, Cockeysville, Md. 21030, was placed in each of the 12 columns within the plate. Using a octapette pipettor, the 2-t-butyl-4-(4-t-butylbenzyl)-phenol compound was serially diluted to each of the 12 columns, from 125 ppm in the first well of each column, to 0.061 ppm in the 12th (each column containing 1/2 the concentration of 2-t-butyl-4-(4-t-butylbenzyl)-phenol compound than the previous column). To each of the 12 columns an additional 100 μl of TBS was added containing A. viscosus bacterium, a common oral bacteria, at a concentration optical density of 0.1, at 610 nm. The plate was then sealed and incubated for 24 hours at 37° C.
# The procedure of Example IV was simultaneously run with water as a negative control and using a known efficacious antibacterial agent, triclosan, as a comparative and positive control. The MIC determined for the triclosan is also recorded in Table III for comparative purposes.
# [1] = test system: PGE2 production in Human Embryo Palatal Mesenchyme cells (HEPM, ATCC #1486); assay: Inhibition of PGE2 production in IL-1β-stimulated HEPM cells; format: cell-based; settings: for IC50: Homo sapiens, read-out: IC50 Concentration to Inhibit 50% of PGE2
# Method: Specifically, Human Embryo Palatal Mesenchyme cells (HEPM, ATCC #1486) cells were grown in high glycose Delbeco's Modified Eagles Medium (DMEM, Gibco/BRL-Life Technologies, Grand Island, N.Y.) containing 10% heat inactivated fetal bovine serum (FBS, Gibco/BRL). The cells were grown at 37° C., 100% humidity, and 10% CO2. Prior to analysis, the cells were subcultured into 24 well plates, to form 12 sets of duplicate cultures, and allowed to become 70-90% confluent. On day one of the experiment, the cells were washed three times with serum free media (containing 0.5% bovine serum albumin, BSA), followed by replacement with BSA containing media alone (the negative control) in the first culture set; media and 1.0 ng/mL IL-1β (the positive control, without any inhibitor) in the second culture set; and media, 1.0 ng/mL IL-1β, and a range of from 0.01 μM to 50 μM of 2-t-butyl-4-(4-t-butylbenzyl)-phenol in the third thru twelfth culture sets. Exposure was for 24 hours at which time the media was removed from each well, the media's pH was adjusted to 3.5 with HCl, and the media was analyzed for PGE2 produced using a PerSeptive Diagnostics TiterFluor PGE2 EIA kit, available from PerSeptive Biosystems, Framingham, Mass. 01701.
# Prior to determining the PGE2 inhibitory effect of the 2-t-butyl-4-(4-t-butylbenzyl)-phenol compound of the present invention, the results must be normalized with respect to the number of viable cells in each culture well; more or less cells producing correspondingly more or less PGE2. […] Once dissolved, the spectroscopic absorbance of 100 μl of the isopropanol solution from each culture well was determined at 570 nm. A normalization factor, the cell concentration ratio, was calculated for each culture well, by dividing the absorbance of the particular culture well's isopropanol solution by the average absorbance of the unstimulated negative control set's isopropanol solutions. The PGE2 originally determined for each culture well was then normalized by being […] the cell concentration ratio calculated for that particular culture well. […]
# COX-2 = biological target: T1, COX-2 (Homo sapiens, UniProt P35354); assay: COX-2 inhibition, oxygen utilization assay; format: biochemical
# T1 sequence (P35354 18-604): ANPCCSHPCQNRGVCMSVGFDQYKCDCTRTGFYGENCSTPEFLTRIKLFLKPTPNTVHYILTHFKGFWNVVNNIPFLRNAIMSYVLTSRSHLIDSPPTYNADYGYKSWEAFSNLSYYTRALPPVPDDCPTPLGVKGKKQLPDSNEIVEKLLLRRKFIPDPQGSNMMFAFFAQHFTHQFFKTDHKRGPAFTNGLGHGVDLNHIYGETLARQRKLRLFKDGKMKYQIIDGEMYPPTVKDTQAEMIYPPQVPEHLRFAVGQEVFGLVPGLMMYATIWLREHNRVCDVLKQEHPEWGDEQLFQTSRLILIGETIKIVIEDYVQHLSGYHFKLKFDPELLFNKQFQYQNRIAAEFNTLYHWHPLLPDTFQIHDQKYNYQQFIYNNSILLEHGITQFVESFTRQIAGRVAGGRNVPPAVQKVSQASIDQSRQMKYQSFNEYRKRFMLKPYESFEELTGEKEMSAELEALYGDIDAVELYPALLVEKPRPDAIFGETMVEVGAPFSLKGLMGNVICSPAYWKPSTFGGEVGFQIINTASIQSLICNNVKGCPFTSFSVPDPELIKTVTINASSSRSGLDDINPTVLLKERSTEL
# Description: (§1) The efficacy of the AAB compounds of the present invention as inhibitors of COX-1 and COX-2 enzymes was shown using the oxygen utilization assay described in Dewhirst, Prostaglandins, 22, 209-222 (1980). Varying concentrations of 2-t-butyl-4-(4-t-butylbenzyl)-phenol, a compound of the present invention were selected that inhibit the enzymatic activity from 20% to about 80%, as compared to a positive control, no inhibitor. These varying concentrations of 2-t-butyl-4-(4-t-butylbenzyl)-phenol were independently added to COX-1 and COX-2 enzymes in a closed system, in which the enzymes were reacted in a reaction requiring molecular oxygen. The degree of inhibition of the COX enzyme activity was measured by the reduction in monitored oxygen consumption as a function of time within the closed system. The COX enzyme IC50, concentration of 2-t-butyl-4-(4-t-butylbenzyl)-phenol found to inhibit 50% of the activity of the COX-1 and COX-2 enzymes is recorded in Table II.
# (§2) For comparison, the COX enzyme IC50 assay methodology of Example III was repeated using triclosan, an agent known to inhibit PG by inhibiting the production of its COX-1 and COX-2 precursors.
# COX-1 = COX-1 (Ovis aries, UniProt P05979); assay: COX-1 inhibition, oxygen utilization assay; format: biochemical; settings: for IC50: oxygen consumption, read-out: IC50 Conc. to Inhibit 50% of COX-1 Activity
# Sequence of COX-1 (P05979 25-600): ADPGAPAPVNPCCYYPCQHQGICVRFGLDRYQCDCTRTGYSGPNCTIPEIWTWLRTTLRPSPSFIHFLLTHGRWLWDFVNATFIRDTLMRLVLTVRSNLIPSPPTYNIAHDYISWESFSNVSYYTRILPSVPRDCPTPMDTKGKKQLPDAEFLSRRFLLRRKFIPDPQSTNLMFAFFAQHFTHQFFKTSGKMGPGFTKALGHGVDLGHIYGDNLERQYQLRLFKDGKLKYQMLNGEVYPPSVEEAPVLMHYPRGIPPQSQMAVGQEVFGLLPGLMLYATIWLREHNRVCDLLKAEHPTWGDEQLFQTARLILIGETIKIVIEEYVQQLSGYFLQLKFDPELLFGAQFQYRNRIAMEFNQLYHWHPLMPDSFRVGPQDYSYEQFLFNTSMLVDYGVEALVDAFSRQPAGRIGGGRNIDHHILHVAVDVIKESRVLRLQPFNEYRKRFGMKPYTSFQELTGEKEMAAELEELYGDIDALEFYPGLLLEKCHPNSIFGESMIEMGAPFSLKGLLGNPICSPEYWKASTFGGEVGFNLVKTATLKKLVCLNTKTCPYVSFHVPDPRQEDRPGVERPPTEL
# Description: as §1, §2
# caries = settings: hamsters; Stralfors 1967; cited from earlier work
# cyclooxygenase = settings: EP 0 528 468 A1; cited from earlier work
# microbial challenge = settings: EP 0 528 468 A1; cited from earlier work
structure (smiles),measurement,setting,value
CC(C)(C)c1ccc(Cc2ccc(O)c(C(C)(C)C)c2)cc1 [2-t-butyl-4-(4-t-butylbenzyl)-phenol],MIC,"A. viscosus; A. viscosus, TSB, 24 hours, 37° C.",0.24 µg/mL
same,MIC relative to that of triclosan,"A. viscosus; vs triclosan, from Table III",about 7%
same,IC50,"[1]; HEPM cells, 1.0 ng/mL IL-1β, 24 hours, normalized to viable cells (MTT)",3.7 µM
same,efficacy as PGE2 inhibitor relative to triclosan,"[1]; vs triclosan, from Table I",~2 times
same,IC50,"COX-2; oxygen consumption, read-out: IC50 Conc. to Inhibit 50% of COX-2 Activity",100 µM
same,efficacy as COX-2 inhibitor relative to triclosan,"COX-2; vs triclosan, from Table II",over 2 times
same,IC50,COX-1,17.4 µM
same,efficacy as COX-1 inhibitor relative to triclosan,"COX-1; vs triclosan, from Table II",over 2 times
"O=C(O)C=Cc1ccc(O)c(O)c1 [caffeic acid, 3,4-dihydroxycinnamic acid]",adverse weight loss,caries,without adverse weight loss
same,inhibition of caries,caries,inhibit caries
"O=c1c(O)c(-c2ccc(O)c(O)c2)oc2cc(O)cc(O)c12 [quercetin, pentahydroxyflavone]",adverse weight loss,caries,without adverse weight loss
"O=C(O)c1ccc(O)c(O)c1 [protocatechuic acid, 3,4-dihydroxybenzoic acid]",adverse weight loss,caries,without adverse weight loss
same,inhibition of caries,caries,inhibit caries
"Oc1cc(Cl)ccc1Oc1ccc(Cl)cc1Cl [Triclosan, 2',4,4'-trichloro-2-hydroxy-diphenyl-ether]",MIC,A. viscosus; 24 h,3.61 µg/mL
same,inhibition of cyclooxygenase activity,cyclooxygenase,inhibits cyclooxygenase activity
same,IC50,[1]; 24 h,7 µM
same,IC50,COX-2,229 µM
same,reduction of microbial challenge,microbial challenge,reduces microbial challenge
same,IC50,COX-1,43 µM
